From EP1260509A1, “Uses of tocopherol esters” (Derma Developpement S.A.R.L., priority 2001, dated 2002)

Columns and labels:
[1] = molecular target: T1, tyrosine kinase (Homo sapiens, UniProt P14679); test: Tyrosine kinase (tyrosinase) activity in human melanocytes, L-Dopamine substrate, absorbance at 475 nm; type: cell-based, humains; conditions: hydroquinone 1 µg/mL (positive control), 72 h; témoin 0.044 ± 0.002
T1 construct: endogenous in cells; host or cells: human melanocytes (cultured)
Procedure: Les mélanocytes humains sont ensemencés à la densité de 50 000 cellules/cm^2 dans des plaques multipuits. Les cellules sont incubées à 37°C en atmosphère humide contenant 5% (v/v) de CO2. Le milieu de culture est le MCDB 153 supplémenté par l'EGF (5 ng/mL) (Sigma), l'insuline (5 µg/mL)(Sigma), l'hydrocortisone (5 ng/mL)(Sigma),du sérum de veau foetal (SVF) à 5 % (v/v)( Gibco). Le milieu de culture est remplacé après 24 heures de culture et supplémenté par des antibiotiques (Peni-Strepto)(Gibco) à 1% (V/v) contenant les différentes concentrations d'un ester de tocophéryle avec un acide gras mono ou polyinsaturé ( 1, 10 et 100 µg/mL).
Une série « témoin positif» est constituée de cellules traitées à l'hydroquinone à 1 µg/mL.
Les cellules sont incubées pendant 72 heures à 37°C en atmosphère humide contenant 5% (v/v) de CO2. A la fin de la période d'incubation, le milieu de culture est prélevé et la couche cellulaire rincée deux fois avec du PBS. 450 µL de Triton X100 à 1% (v/v) dans le PBS sont ajouté dans chaque puits. On agite pendant 10 minutes puis on ajoute 50 µL de L-Dopamine à 10 mM dans du PBS sans Ca^++ ni Mg ^++
On laisse incuber pendant 1 heure à 37°C à l'abri de la lumière, puis on mesure l'absorption à 475 nm au spectrophotomètre. Tableau 1

[2] = system: fibroblastes de derme humain; test: Mitochondrial activity of human dermal fibroblasts (rhodamine 123 fluorescence, semi-quantitative score); type: cell-based; conditions: antimycine 0,5 µM (positive control), 72 h
Procedure: Les fibroblastes de derme humain sont ensemencées à la densité de 5000 cellules/cm^2 dans 500 µl de milieu IMDM supplémenté par du SVF 10% pendant 24 heures en atmosphère humide contenant 5% (v/v) de CO2
Après 24 heures, les cellules sont mises en contact avec les différentes concentrations d'un ester de tocophéryle avec un acide gras mono ou polyinsaturé ( 10, 50 et 100 µg/ml).
Une série « témoin positif» est constituée de cellules traitées à l'antimycine à 0,5 µM.
Principe : L'incorporation cellulaire de rhodamine 123 est la conséquence de la variation du potentiel transmembranaire mitochondrial. L'évaluation semi-quantitative de la respiration mitochondriale est basée sur l'intensité de la fluorescence à l'intérieur de la cellule.
Les cellules sont incubées pendant 72 heures à 37°C en atmosphère humide contenant 5% (v/v) de CO2. A la fin de la période d'incubation, le milieu de culture est prélevé et la couche cellulaire rincée deux fois avec du milieu IMDM puis mise dans 500 µl de tampon phosphate pH 7.2 contenant 0.1 mg/ml de rhodamine 123.
On laisse incuber pendant 15 minutes à 37 °C, puis on mesure la fluorescence de façon semi-quantitative à l'aide d'une échelle de cotation.
Echelle de cotation (Intensité de fluorescence) : 0 : cytoplasme non fluorescent, 1 : faible; 2 : moyennement intense; 3 : Importante; 4 : Très importante, tout le cytoplasme est fluorescent.

T1 sequence (P14679 19-529): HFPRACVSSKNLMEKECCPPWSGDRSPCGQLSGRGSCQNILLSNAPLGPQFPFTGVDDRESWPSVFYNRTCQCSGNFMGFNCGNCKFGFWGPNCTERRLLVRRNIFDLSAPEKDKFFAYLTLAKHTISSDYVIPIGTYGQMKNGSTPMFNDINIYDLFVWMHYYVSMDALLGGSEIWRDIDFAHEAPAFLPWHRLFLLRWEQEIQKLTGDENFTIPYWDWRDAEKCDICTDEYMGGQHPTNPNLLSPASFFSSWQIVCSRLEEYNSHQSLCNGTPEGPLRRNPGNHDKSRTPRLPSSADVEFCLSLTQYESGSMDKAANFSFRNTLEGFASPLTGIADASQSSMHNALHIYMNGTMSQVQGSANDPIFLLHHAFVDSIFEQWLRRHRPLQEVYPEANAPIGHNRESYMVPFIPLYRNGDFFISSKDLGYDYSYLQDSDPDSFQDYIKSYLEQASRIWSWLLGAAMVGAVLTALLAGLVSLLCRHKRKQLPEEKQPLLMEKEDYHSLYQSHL

| Compound | moyenne absorbance à 475 nm [1] | cellules, intensité de fluorescence 4 : Très importante, tout le cytoplasme est fluorescent ([2]; témoin 12,3 ± 2,1) | cellules, intensité de fluorescence 0 : cytoplasme non fluorescent ([2]; témoin 17,7 ± 2,1) | cellules, intensité de fluorescence 1 : faible ([2]; témoin 21,0 ± 2,9) | cellules, intensité de fluorescence 2 : moyennement intense ([2]; témoin 25,0 ± 2,4) | cellules, intensité de fluorescence 3 : Importante ([2]; témoin 25,7 ± 3,1) |
| --- | --- | --- | --- | --- | --- | --- |
| Oc1ccc(O)cc1 [hydroquinone] | 0.024 ± 0.001 | – | – | – | – | – |
| antimycine | – | 10,7 ± 2,5 | 25,0 ± 4,1 | 16,3 ± 1,9 | 20,0 ± 1,6 | 13,3 ± 2,4 |
